# Assay results as given in paper PMC6544370 (Nature, 2019).
# Target: Lp-CdnE02 (CD-NTase057) (Legionella pneumophila, UniProt P0DSP3)
# Sequence (P0DSP3 whole entry, looked up): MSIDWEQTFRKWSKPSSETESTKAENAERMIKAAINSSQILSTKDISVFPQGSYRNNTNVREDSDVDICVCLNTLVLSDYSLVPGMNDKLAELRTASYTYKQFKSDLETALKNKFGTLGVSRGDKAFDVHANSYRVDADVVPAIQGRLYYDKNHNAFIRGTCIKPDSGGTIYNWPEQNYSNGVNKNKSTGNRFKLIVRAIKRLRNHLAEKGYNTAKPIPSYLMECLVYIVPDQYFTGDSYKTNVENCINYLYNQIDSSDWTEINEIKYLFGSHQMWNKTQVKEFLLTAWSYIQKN
smiles,measurement,value
O=c1ccn([C@@H]2O[C@H](COP(=O)(O)OP(=O)(O)OP(=O)(O)O)[C@@H](O)[C@H]2O)c(=O)[nH]1 [UTP],"radiolabelled NTP, TLC and mass spectrometry",Lp-CdnE02 synthesized predominantly c-di-UMP
